ChEMBL document CHEMBL6092178, “Discovery of a novel KV7.2/7.3 channels agonist for the treatment of neuropathic pain” (Eur J Med Chem, 2024)
Active and inactive are the calls of the source.

Legend:
[1] = target: Voltage-gated potassium channel, KQT; KCNQ2(Kv7.2)/KCNQ3(Kv7.3) (Homo sapiens, UniProt O43525+O43526); test: Agonist activity at human KCNQ2/3 transfected in human HEK293 cells incubated for 30 mins by fluorimetric assay; type: cell-based
Rattus norvegicus [2] = test: Antiallodynic activity in spinal nerve ligation-induced neuropathic pain male Sprague-Dawley rat model assessed as mechanical withdrawal threshold at 40 mg/kg, IG pretreated with compound for 1 hr and measured on day 15 after surgery; type: functional, organism-based; conditions: time 15.0 day
Rattus norvegicus [3] = test: Antinociceptive activity against formalin-induced pain in male Sprague-Dawley rat assessed as reduction in nociceptive response at 40 mg/kg, IG pretreated for 5 mins followed by formalin challenge and measured for first 9 mins (phase I); type: functional, organism-based; conditions: time 14.0 min
Mus musculus = test: Induction of motor coordination impairment in mouse at 20 mg/kg, IG measured upto 120 mins by rotarod method; type: functional, organism-based
Rattus norvegicus [4] = test: Antinociceptive activity against formalin-induced pain in male Sprague-Dawley rat assessed as reduction in nociceptive response at 40 mg/kg, IG pretreated for 5 mins followed by formalin challenge and measured for 10 to 60 mins (phase II); type: functional, organism-based; conditions: time 15-65 min
[5] = Hepatotoxicity in rat assessed as increase in serum TBIL level at 40 mg/kg, IG administered for 28 days and measured after 14 days; type: toxicity, organism-based; conditions: in vivo, po, 672 h, time 28 day
[6] = Hepatotoxicity in rat assessed as change in serum total bilirubin (TBIL) level at 10 to 40 mg/kg, IG administered for 28 days and measured after 14 days; type: toxicity, organism-based; conditions: in vivo, po, 672 h, dose 10-40 mg/kg, time 28 day
[7] = Hepatotoxicity in rat assessed as increase in serum ALT level at 40 mg/kg, IG administered for 28 days and measured after 14 days; type: toxicity, organism-based; conditions: in vivo, po, 672 h, time 28 day
[8] = Hepatotoxicity in rat assessed as increase in serum ALT level at 10 to 20 mg/kg, IG administered for 28 days and measured after 14 days relative to control; type: toxicity, organism-based; conditions: in vivo, po, 672 h, dose 10-20 mg/kg, time 28 day
[9] = Hepatotoxicity in rat assessed as change in serum ALP level at 10 to 40 mg/kg, IG administered for 28 days and measured after 14 days; type: toxicity, organism-based; conditions: in vivo, po, 672 h, dose 10-40 mg/kg, time 28 day
[10] = Hepatotoxicity in rat assessed as change in serum AST level at 10 to 40 mg/kg, IG administered for 28 days and measured after 14 days; type: toxicity, organism-based; conditions: in vivo, po, 672 h, dose 10-40 mg/kg, time 28 day

Voltage-gated potassium channel, KQT; KCNQ2(Kv7.2)/KCNQ3(Kv7.3), sequence (O43526 whole entry): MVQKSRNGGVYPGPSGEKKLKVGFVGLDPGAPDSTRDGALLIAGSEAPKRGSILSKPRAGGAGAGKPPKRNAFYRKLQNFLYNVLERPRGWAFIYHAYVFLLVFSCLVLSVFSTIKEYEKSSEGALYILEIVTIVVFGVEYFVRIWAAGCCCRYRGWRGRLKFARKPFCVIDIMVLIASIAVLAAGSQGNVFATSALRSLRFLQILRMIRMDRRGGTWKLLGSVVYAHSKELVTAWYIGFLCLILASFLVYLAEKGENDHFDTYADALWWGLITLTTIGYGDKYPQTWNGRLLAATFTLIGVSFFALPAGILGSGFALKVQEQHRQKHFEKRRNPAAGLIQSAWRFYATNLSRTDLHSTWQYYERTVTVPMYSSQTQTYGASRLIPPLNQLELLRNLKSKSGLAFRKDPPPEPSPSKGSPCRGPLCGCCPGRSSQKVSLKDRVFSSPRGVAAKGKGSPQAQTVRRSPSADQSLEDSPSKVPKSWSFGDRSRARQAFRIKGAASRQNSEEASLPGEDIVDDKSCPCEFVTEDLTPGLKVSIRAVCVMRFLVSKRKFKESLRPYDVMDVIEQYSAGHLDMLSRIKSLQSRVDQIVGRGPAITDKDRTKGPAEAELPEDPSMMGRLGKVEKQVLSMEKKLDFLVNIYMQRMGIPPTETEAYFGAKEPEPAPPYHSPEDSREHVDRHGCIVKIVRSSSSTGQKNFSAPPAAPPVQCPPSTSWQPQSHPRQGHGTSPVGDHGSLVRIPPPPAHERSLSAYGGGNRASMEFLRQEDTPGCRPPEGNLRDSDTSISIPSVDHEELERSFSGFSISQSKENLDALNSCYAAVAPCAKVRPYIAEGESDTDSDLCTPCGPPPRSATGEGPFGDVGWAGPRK
Voltage-gated potassium channel, KQT; KCNQ2(Kv7.2)/KCNQ3(Kv7.3), sequence (O43525 whole entry): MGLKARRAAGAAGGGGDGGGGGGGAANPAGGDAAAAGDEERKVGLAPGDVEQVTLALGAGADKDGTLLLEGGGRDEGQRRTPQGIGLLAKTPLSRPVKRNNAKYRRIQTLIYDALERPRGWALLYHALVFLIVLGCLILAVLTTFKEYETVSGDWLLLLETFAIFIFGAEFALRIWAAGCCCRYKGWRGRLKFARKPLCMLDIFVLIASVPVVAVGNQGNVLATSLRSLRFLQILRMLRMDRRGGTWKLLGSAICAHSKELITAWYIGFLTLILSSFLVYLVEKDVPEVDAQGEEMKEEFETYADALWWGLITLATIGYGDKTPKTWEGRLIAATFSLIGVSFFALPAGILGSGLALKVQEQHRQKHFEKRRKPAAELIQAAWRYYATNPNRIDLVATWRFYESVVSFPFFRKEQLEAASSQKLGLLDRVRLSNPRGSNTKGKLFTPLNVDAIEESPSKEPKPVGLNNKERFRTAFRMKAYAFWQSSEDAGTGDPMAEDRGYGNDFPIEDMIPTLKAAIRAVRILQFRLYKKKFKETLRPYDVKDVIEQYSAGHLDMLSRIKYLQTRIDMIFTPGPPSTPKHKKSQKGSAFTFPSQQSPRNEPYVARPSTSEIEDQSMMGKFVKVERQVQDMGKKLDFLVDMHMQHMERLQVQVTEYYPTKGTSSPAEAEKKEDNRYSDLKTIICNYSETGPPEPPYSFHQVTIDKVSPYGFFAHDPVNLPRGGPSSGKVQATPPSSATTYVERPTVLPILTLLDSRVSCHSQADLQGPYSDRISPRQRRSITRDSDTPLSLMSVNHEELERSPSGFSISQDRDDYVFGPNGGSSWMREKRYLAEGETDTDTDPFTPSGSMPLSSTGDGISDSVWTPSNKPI

Structure (SMILES) | EC50 [1] [µM] | other results
CCOC(=O)Nc1ccc(OCc2ccc(F)cc2)nc1NC(C)=O | 6.19 | –
CCOC(=O)Nc1nc(OCc2ccc(F)cc2)ccc1N | 12.1 | –
Nc1ccc(OCc2ccc(F)cc2)cc1NC(=O)c1ccccc1 | 196 | –
CC(=O)Nc1nc(OCc2cccc3ccccc23)ccc1N | 218 | –
Nc1ccc(OCc2ccc(F)cc2)nc1NC(=O)c1ccccc1 | 98.6 | –
CC(=O)Nc1cc(OCc2ccc(F)cc2)ccc1N | 13.5 | –
CC(C)C[C@H](CN)CC(=O)O | – | Activity (Rattus norvegicus [2]): Active; Activity (Rattus norvegicus [3]): inactive; Activity (Mus musculus): inactive; Activity (Rattus norvegicus [4]): Active
CCOC(=O)Nc1ccc(NCc2ccc(F)cc2)nc1N [FLUPIRTINE] | 1.9 | Activity [5]: Toxic; Activity [6]: Non-toxic; Activity [7]: Toxic; Activity [8]: < 70%; Activity [9]: Non-toxic; Activity [10]: Non-toxic
CC(=O)Nc1nc(OCc2ccc(Cl)c(Cl)c2)ccc1N | 10.1 | –
CC(=O)Nc1ccc(OCc2ccc(F)cc2)nc1NC(C)=O | 7.61 | –
CC(=O)Nc1nc(OCc2ccc3c(c2)OCO3)ccc1N | 128 | –
CC(=O)Nc1nc(OCCc2ccc(F)cc2)ccc1N | 9.39 | –
Nc1ccc(OCc2ccc(F)cc2)nc1NC(=O)C1CCCCC1 | 164 | –
